Tests used:
E. coli = assay: Assay for antimicrobial activity: test solution incubated with 10^6 CFUs bacteria, neutralised, plated, growth assessed after 24 hours; type: cell-based; parameters: key to Growth of E. coli 24 hrs after treatment, 1:100 dilution of bacterial reaction mixture / Growth of E. coli 24 hrs after treatment, 1:1000 dilution of bacterial reaction mixture / Growth of E. coli 24 hrs after treatment, 1:10 dilution of bacterial reaction mixture: + plates with microbial growth; − for plates that had no growth; conditions: for Growth of E. coli 24 hrs after treatment, 1:100 dilution of bacterial reaction mixture / Growth of E. coli 24 hrs after treatment, 1:1000 dilution of bacterial reaction mixture / Growth of E. coli 24 hrs after treatment, 1:10 dilution of bacterial reaction mixture: 10^6 CFUs, 30 min RT; for Concentration at which growth of E. coli is inhibited: 30 min treatment
Method: • APG: AG6210 (Akzo Nobel Surface Chemistry AB) 60% aqueous solution of a 60:40 mixture of decyl-β-D-glucopyranoside and octyl-β-D-glucopyranoside • Decyl-β-D-glucopyranoside—EC number: 259-218-1; CAS number: 54549-25-6 • Octyl-β-D-glucopyranoside—EC number: 414-420-0; CAS number: 108081-06-7 • ε-polylysine: Zhengzhou Bainafo Co., Ltd. […] L(+)-lactic acid. […] CAS number: 79-33-4 • Neutraliser (NF): 30 ml Tween 80, 30 g saponine, 1 g histidine, 1 g cysteine dissolved in 1000 ml water; sterilised by autoclaving. • RBT 24/7: Residual Barrier Technology. Proprietary antimicrobial surface sanitizer. • Culture media: Oxoid plate count agar (CM0463): […]

[1] = at 20° C.; cited from earlier work
[2] = Table 1: L(+)-lactic acid alone, listed as 250 mM L(+)-Lactic Acid
[3] = Table 1: L(+)-lactic acid alone, listed as 500 mM L(+)-Lactic Acid
[4] = Table 1: L(+)-lactic acid alone, listed as 1M L(+)-Lactic Acid, 1M L(+)-lactic acid
[5] = Table 1: L(+)-lactic acid alone, listed as 2M L(+)-Lactic Acid, 2M L(+)-lactic acid
[6] = acid(s) alone, printed as cannot inhibit growth when used at up to, combined concentration for lactic + citric

Row | SMILES | Growth of E. coli 24 hrs after treatment, 1:100 dilution of bacterial reaction mixture (E. coli; Table 1: L(+)-lactic acid alone, listed as 100 mM L(+)-Lactic Acid) | Growth of E. coli 24 hrs after treatment, 1:1000 dilution of bacterial reaction mixture (E. coli; Table 1: L(+)-lactic acid alone, listed as 100 mM L(+)-Lactic Acid, 100 mM L(+)-lactic acid) | Growth of E. coli 24 hrs after treatment, 1:10 dilution of bacterial reaction mixture (E. coli; [2]) | Growth of E. coli 24 hrs after treatment, 1:100 dilution of bacterial reaction mixture (E. coli; [2]) | Growth of E. coli 24 hrs after treatment, 1:1000 dilution of bacterial reaction mixture (E. coli; Table 1: L(+)-lactic acid alone, listed as 250 mM L(+)-Lactic Acid, 250 mM L(+)-lactic acid) | Growth of E. coli 24 hrs after treatment, 1:10 dilution of bacterial reaction mixture (E. coli; [3]) | Growth of E. coli 24 hrs after treatment, 1:100 dilution of bacterial reaction mixture (E. coli; [3]) | Growth of E. coli 24 hrs after treatment, 1:1000 dilution of bacterial reaction mixture (E. coli; Table 1: L(+)-lactic acid alone, listed as 1M L(+)-Lactic Acid) | Growth of E. coli 24 hrs after treatment, 1:10 dilution of bacterial reaction mixture (E. coli; [4]) | Growth of E. coli 24 hrs after treatment, 1:100 dilution of bacterial reaction mixture (E. coli; [4]) | Growth of E. coli 24 hrs after treatment, 1:1000 dilution of bacterial reaction mixture (E. coli; Table 1: L(+)-lactic acid alone, listed as 2M L(+)-Lactic Acid) | Growth of E. coli 24 hrs after treatment, 1:10 dilution of bacterial reaction mixture (E. coli; [5]) | Growth of E. coli 24 hrs after treatment, 1:100 dilution of bacterial reaction mixture (E. coli; [5]) | Concentration at which growth of E. coli is inhibited (E. coli; [6]) [mM] | Concentration at which growth of E. coli is inhibited (E. coli; lactic acid alone) | Growth of E. coli 24 hrs after treatment, 1:1000 dilution of bacterial reaction mixture (E. coli; Table 2: citric acid alone, listed as 50 mM Citric Acid) | CMC [1]
1 | C[C@H](O)C(=O)O [L(+)-Lactic Acid, L(+)-lactic acid] | + | + | + | + | − | + | + | − | + | + | − | − | − | > 40 | at least 1 M |  | 
2 | O=C(O)CC(O)(CC(=O)O)C(=O)O [Citric Acid, Citric acid] |  |  |  |  |  |  |  |  |  |  |  |  |  | > 50 |  | + | 
3 | CCCCCCCCCCO[C@@H]1O[C@H](CO)[C@@H](O)[C@H](O)[C@H]1O [decylglucoside, Decyl-β-D-glucopyranoside] |  |  |  |  |  |  |  |  |  |  |  |  |  |  |  |  | approximately 300 ppm

— US20190075794A1, “BIODEGRADABLE ANTIMICROBIAL COMPOSITIONS AND USES THEREOF TO COMBAT MICROORGANISMS” (IPABC LTD, priority 2015, published 2019)
